From PubChem BioAssay (NCI)
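96-well plates; 48 h exposure; 5 concentrations. Endpoints by linear interpolation between flanking doses. Not reached: highest tested concentration assigned. TGI is the concentration that stops growth completely.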

Tests used:
Assay in all cases: growth of human tumour cells (NCI), 48 h
[1] = system: HS 578T breast
[2] = system: KM12 colon
[3] = system: UO-31 renal
[4] = system: 786-0 renal
[5] = system: OVCAR-4 ovarian
[6] = system: HT29 colon
[7] = system: OVCAR-8 ovarian
[8] = system: SR leukemia

Row | Structure (SMILES) | TGI [1] [µM] | TGI [2] [µM] | TGI [3] [µM] | TGI [4] [µM] | TGI [5] [µM] | TGI [6] [µM] | TGI [7] [µM] | TGI [8] [µM]
1 | NC(N)=N/N=C\c1c(-c2cccc([N+](=O)[O-])c2)nc2sccn12 | 38.1 | 3.66 | 37.7 | > 100 | 3.78 | 4.23 | – | –
2 | C#CCN(Cc1ccc2nc(-c3ccccc3)c(Cl)nc2c1)c1ccc(F)cc1 | > 100 | > 100 | > 100 | > 100 | > 100 | > 100 | > 100 | > 100
3 | C[N+]1(C)C2CC(OC(=O)C(CO)c3ccccc3)CC1C1OC12 (stereo not given) | > 100 | > 100 | > 100 | > 100 | > 100 | > 100 | > 100 | > 100
4 | C=C1c2nc3ccccc3n2C=C(c2ccc(OC)cc2)N1c1ccc(OCCN2CCCCC2)cc1 | > 100 | > 100 | > 48.2 | > 52.5 | > 100 | 43.3 | > 100 | 28.6
5 | O=C(CC(NC(=O)OCc1ccccc1)C(=O)NC1Cc2ccccc2C1=O)OCc1ccccc1 (stereo not given) | > 100 | > 100 | > 100 | > 100 | – | > 100 | > 100 | > 100
6 | NS(=O)(=O)c1ccc(NC(=S)NC(=O)Nc2ccc(Cl)c(Cl)c2)cc1 | 59.3 | 28.3 | 9.66 | 31.1 | 44.1 | 31.3 | 41.2 | > 100
7 | Cc1cn2cc(-c3cccs3)nc2s1 | > 100 | > 100 | > 100 | > 100 | > 100 | > 90.1 | > 100 | > 100
8 | CC(NCc1c(O)ccc2c(-c3ccccc3)cc(=O)oc12)C(=O)O (stereo not given) | > 100 | > 100 | > 100 | > 100 | > 100 | > 100 | > 100 | > 100
9 | COC(=NC(C)C)NC(C)C | > 100 | – | > 100 | > 100 | – | – | > 100 | > 100
10 | COC(=O)c1c(O)c(C#N)c2[nH]c3ccccc3n2c1=O | > 100 | > 100 | > 100 | > 100 | > 100 | > 100 | > 100 | > 100
11 | CC(=O)c1ccc(Br)cc1NC1=CC(=O)c2ncccc2C1=O | 35.6 | 11.7 | 15.8 | 15.3 | 11.2 | 12.3 | 18.2 | 5.97
12 | Clc1ccc(Cc2nc3ccccc3o2)cc1 | > 100 | > 100 | > 100 | > 100 | > 100 | > 100 | > 100 | > 100
13 | CCCN(CCC)C(=S)Sc1nc(C)nc(N2CCN(c3nc(C)nc(SC(=S)N(CCC)CCC)c3[N+](=O)[O-])CC2)c1[N+](=O)[O-] | > 100 | 33.4 | 37.4 | > 53 | 76.5 | 21.7 | > 100 | > 81.9
14 | C=CCOC(=O)Cn1cnc2c(N)ncnc21 | > 100 | > 100 | > 100 | > 100 | > 100 | > 100 | > 100 | > 100
15 | OCC(O)COCn1cc(Cn2ncc3c(SCc4ccccc4)ncnc32)nn1 (stereo not given) | – | > 100 | > 100 | > 100 | > 100 | > 100 | > 100 | –
16 | C#CCOC(=O)C(N)CC(N)=O (stereo not given) | > 100 | > 100 | > 100 | > 100 | > 100 | > 31.6 | > 100 | > 100
17 | CSC(=S)CC(O)[C@@H]1CC2c3ccccc3C1c1ccccc12 (stereo not given in full) | 80.2 | 25.5 | 25.6 | 41.3 | 27.5 | 15 | 39.2 | –
18 | N=C(N)SCc1ccc2c(c1)S(=O)(=O)c1ccccc1O2 | 78.7 | 32.7 | 29.7 | > 100 | 66.9 | 33.8 | > 100 | > 100
19 | COC(=O)c1cc2ccc(O)c(O)c2cn1 | – | 32 | 32.2 | 19.7 | 21.7 | – | 28.6 | –
20 | COC1=C(C(c2cc(OC)c(OC)c(OC)c2)c2cc3c(cc2OC)OCO3)C(=O)OC1 (stereo not given) | > 58.4 | 40.9 | 54.9 | 65.4 | > 95.1 | 51.4 | 73.9 | > 61.7
21 | NC(N)=N/N=C/c1c(-c2ccccc2[N+](=O)[O-])nc2sccn12 | > 100 | 46.9 | 90.3 | 35.3 | > 100 | 81.6 | > 100 | 35.1
22 | C=C1CC[C@](C)(O)[C@@]2(C)CC[C@H]3C(=C(C)C)C(=O)C[C@]3(C)C[C@H]12 | > 50 | > 50 | > 50 | > 50 | > 50 | > 50 | > 50 | 41.1
23 | COC(=O)C(Cc1ccccc1)NC(=O)CSc1nnc(COc2ccc(Cl)cc2)n1-c1ccccc1 (stereo not given) | > 100 | > 100 | 3.34 | 29.8 | 64.9 | 53.2 | – | > 100
24 | COCCN(C(=O)c1ccccc1)C1CCC2(SCCS2)c2[nH]c3ccccc3c21 (stereo not given) | > 100 | > 100 | > 100 | > 100 | – | > 100 | > 100 | > 100
25 | N#Cc1cc2c(cc1C#N)SCCSCCCSCCS2 | 28.8 | > 100 | > 90.6 | 19 | > 100 | > 100 | 31.8 | > 70.3
26 | COc1cc2c(cc1OS(C)(=O)=O)N=C[C@@H]1CCCN1C2=O | > 100 | > 100 | > 100 | > 100 | > 100 | > 100 | > 100 | > 100
27 | Brc1ccc(C2=NCSC(c3ccc(Br)cc3)=N2)cc1 | > 100 | > 100 | 67.2 | 40.4 | > 100 | 86.3 | > 100 | 47.4

Row | Structure (SMILES) | TGI [1] [µM] | TGI [2] [µM] | TGI [3] [µM] | TGI [4] [µM] | TGI [5] [µM] | TGI [6] [µM] | TGI [7] [µM] | TGI [8] [µM]
28 | COc1ccc(/C=C/C(=O)c2cc(OC)cc(OC)c2)cc1 | 15.1 | 2.23 | 12.4 | 11.2 | 18 | 4.96 | 18.3 | –
29 | Cc1ccc(-c2n[nH]c(=O)n2/N=C\c2ccccc2O)cc1 | > 100 | > 100 | > 100 | > 100 | > 100 | > 100 | > 100 | > 100
30 | O=C(c1ccc2ccccc2c1)C1(I)S(=O)(=O)OCCOS1(=O)=O | – | > 100 | > 100 | > 100 | > 100 | > 100 | > 100 | > 100
31 | COc1cc2nc(-c3cccs3)nc(Nc3cccc([N+](=O)[O-])c3)c2cc1OC | 70.5 | 40.6 | 43.9 | 40.9 | > 100 | > 100 | 56.8 | 34.2
32 | COc1cccc(OC)c1C1ON=C(c2ccccc2)N1C12CC3CC(CC(C3)C1)C2 (stereo not given) | > 100 | > 100 | > 100 | > 100 | – | > 100 | > 100 | > 100
33 | Cc1ccc(S(=O)(=O)NNC(=O)Nc2cccc(C(F)(F)F)c2)cc1 | > 100 | > 100 | > 100 | > 100 | > 100 | > 100 | > 100 | > 100
34 | CC(=O)N1C=Cc2c(c(C)c3c([nH]c4ccccc43)c2C)C1 | 15.9 | 12 | – | 6.73 | 5.17 | 18 | 29.1 | > 100
35 | CCNC1=C(NC(=O)c2ccc(F)cc2)C(=O)c2ccccc2C1=O | > 100 | > 100 | – | > 100 | > 100 | 53.6 | > 100 | > 100
36 | O=c1[nH]c(=S)[nH]cc1CN1CCOCC1 | > 100 | > 100 | > 100 | > 100 | > 100 | > 100 | > 100 | > 100
37 | O=C(CCC(=O)c1ccsc1)c1ccsc1 | > 100 | > 100 | > 100 | > 100 | > 100 | – | > 100 | > 100
38 | CN(C)CCNc1ccc(NCC[N+](C)(C)Cc2ccc([N+](=O)[O-])cc2)c2c1C(=O)c1c(O)ccc(O)c1C2=O | > 100 | > 100 | – | > 100 | > 100 | > 100 | > 100 | –
39 | COc1ccc2c(c1)/C(=C/c1c(O)[nH]c(=S)[nH]c1=O)C=N2 | > 100 | > 100 | > 100 | > 100 | > 100 | > 100 | > 100 | > 100
40 | COc1cc2nc3n(c2cc1OC)C(O)c1c(Cl)nc(SC)nc1S3 (stereo not given) | > 100 | > 100 | 13.2 | 7.85 | > 39 | > 100 | 7.06 | > 100
41 | CC(CN1NC12CCCC2)N1NC12CCCC2 (stereo not given) | > 100 | > 100 | > 100 | > 100 | > 100 | > 100 | > 100 | –
42 | CCCc1nnc2sc(COc3ccc(OCc4nn5c(CCC)nnc5s4)c(Cl)c3)nn12 | > 100 | > 100 | 31.8 | > 100 | 74.6 | 98.9 | > 100 | 64.1
43 | COC(=O)NC(=O)NC(Cc1ccccc1)NC(=O)OCc1ccccc1 (stereo not given) | – | > 100 | > 100 | > 100 | > 100 | > 100 | > 100 | > 100
44 | COCN1C(=O)[C@@H]2CCCN2C(=O)c2cc(OC)c(Cc3ccccc3)cc21 | > 100 | > 100 | > 100 | > 100 | > 100 | > 100 | > 100 | –
45 | N#CC(C#N)=c1c(=O)c2c3ccccc3cc3cccc1c32 | 85 | > 100 | – | > 100 | > 100 | > 100 | – | –
46 | CC[C@@H]1/C=C/C=C/C[C@H](C)[C@@H](O)[C@@H](C)C(=O)[C@H](C)[C@@H](O)[C@H](C)C(=O)[C@H](C)[C@@H](O)[C@H](C)/C=C/C(=O)O[C@H]2[C@@H](C)[C@@H](CC1)O[C@@]1(CC[C@@H](C)[C@@H](CC(C)O)O1)[C@@H]2C (stereo not given in full) | > 23.5 | > 21.5 | – | > 25 | > 19.3 | 13.9 | > 25 | 10.2
47 | CC1(C)CNC(=O)C2(CCCO2)CNC(C)(C)CNC(=O)C2(CCCO2)CN1 (stereo not given) | > 10 | > 10 | – | > 10 | > 10 | > 10 | > 10 | > 10
48 | CC(C)OC(=O)NCCn1cc(-c2ccccc2)nn1 | – | > 100 | – | > 100 | > 100 | > 100 | > 100 | > 100
49 | Cc1cn([C@@H]2O[C@H](CO[Si](C)(C)C(C)(C)C)[C@]3(O[C@H]3C(=O)NO)[C@H]2O[Si](C)(C)C(C)(C)C)c(=O)[nH]c1=O | 4.23 | 3.71 | 3.28 | 2.87 | 3.77 | 2.92 | 3.53 | –
50 | CC(C)[Si](OC12CCC(CC1O)CC2CO)(C(C)C)C(C)C (stereo not given) | – | 25.3 | 26.8 | 22.3 | 23.7 | 28.9 | 29.7 | 38.5
51 | Clc1ccc(/C=C/c2nc(-c3ccccc3)cn3c2nc2ccccc23)cc1Cl | – | > 100 | > 100 | > 100 | > 100 | > 100 | – | > 100
52 | CCC(C)N1CN(c2ccccc2)C2(CCN(CC3COc4ccccc4O3)CC2)C1=O (stereo not given) | – | 43.9 | 30.2 | 35.5 | – | 40.3 | 67.9 | 76
53 | O=C1CSC(c2c[nH]c3ccccc23)N1c1cccc(Cl)c1 (stereo not given) | > 100 | > 100 | > 100 | 47.1 | > 100 | > 100 | > 100 | –
